Reference: patent US6376426B1, “Herbicidal 3-(heterocycl-1-yl)-uracils” (BASF Aktiengesellschaft, priority 1999, dated 2002)

Tests used:
Type in all cases: in vivo
Glycine max [1] = assay: Post-emergence herbicidal test, GLXMA; conditions: 21 days after spraying
Procedure: (§1) To evaluate their herbicidal activity, compounds according to the invention are tested using a representative range of plants:
(§2) […] After spraying, the plants are placed on greenhouse benches and are cared for in the usual manner, commensurate with conventional greenhouse practices.
(§3) The herbicidal effects of the test compounds are assessed visually twenty-one days after spraying the foliage and the soil and are recorded on a 0-9 scale. A rating 0 indicates growth as untreated control, a rating 9 indicates death. An increase of 1 unit on the linear scale approximates to a 10% increase in the level of effect.

Matricaria inodora [2] = assay: Pre-emergence herbicidal test, MATIN; conditions: PRE, 21 days after spraying
Procedure: as §1
(§4) The pre-emergence tests involve spraying a liquid formulation of the compound onto the soil in which the seeds of the plant species mentioned above has recently been sown.
(§5) The soil used in the tests is a prepared horticultural loam. The formulations used in the tests are prepared from solutions of the test compounds in acetone containing 0.4% by weight of an alkylphenol/ethylene oxide condensate available under the trade mark TRITON X-155. […] In these tests untreated sown soil are used as controls.
as §3

Zea mays [3] = assay: Post-emergence herbicidal test, ZEAMX; conditions: 21 days after spraying
Procedure: as §1, §2, §3

Ipomoea hederacea [4] = assay: Pre-emergence herbicidal test, IPOHE; conditions: 21 days after spraying
Procedure: as §1, §4, §5, §3

Stellaria media [5] = assay: Post-emergence herbicidal test, STEME; set-up: key to herbicidal effect (0-9 scale) STEME / herbicidal rating STEME: A rating 0 indicates growth as untreated control; a rating 9 indicates death; conditions: POST, 21 days after spraying
Procedure: as §1, §2, §3

Setaria viridis [6] = assay: Pre-emergence herbicidal test, SETVI; conditions: PRE, 21 days after spraying
Procedure: as §1, §4, §5, §3

Triticum aestivum [7] = assay: Pre-emergence herbicidal test, TRZAW; conditions: 21 days after spraying
Procedure: as §1, §4, §5, §3

Galium aparine [8] = assay: Post-emergence herbicidal test, GALAP; conditions: POST, 21 days after spraying
Procedure: as §1, §2, §3

Glycine max [9] = assay: Pre-emergence herbicidal test, GLXMA; set-up: key to herbicidal effect (0-9 scale) GLXMA / herbicidal rating GLXMA: A rating 0 indicates growth as untreated control; a rating 9 indicates death; conditions: PRE, 21 days after spraying
Procedure: as §1, §4, §5, §3

Stellaria media [10] = assay: Pre-emergence herbicidal test, STEME; set-up: key to herbicidal effect (0-9 scale) STEME / herbicidal rating STEME: A rating 0 indicates growth as untreated control; a rating 9 indicates death; conditions: PRE, 21 days after spraying
Procedure: as §1, §4, §5, §3

Abutilon theophrasti [11] = assay: Post-emergence herbicidal test, ABUTH; set-up: key to herbicidal effect (0-9 scale) ABUTH / herbicidal rating ABUTH: A rating 0 indicates growth as untreated control; a rating 9 indicates death; conditions: POST, 21 days after spraying
Procedure: as §1, §2, §3

Echinochloa crus-galli [12] = assay: Pre-emergence herbicidal test, ECHCG; conditions: 21 days after spraying
Procedure: as §1, §4, §5, §3

Galium aparine [13] = assay: Pre-emergence herbicidal test, GALAP; conditions: PRE, 21 days after spraying
Procedure: as §1, §4, §5, §3

Hordeum vulgare [14] = assay: Pre-emergence herbicidal test, HORVW; conditions: 21 days after spraying
Procedure: as §1, §4, §5, §3

Abutilon theophrasti [15] = assay: Pre-emergence herbicidal test, ABUTH; set-up: key to herbicidal effect (0-9 scale) ABUTH / herbicidal rating ABUTH: A rating 0 indicates growth as untreated control; a rating 9 indicates death; conditions: PRE, 21 days after spraying
Procedure: as §1, §4, §5, §3

Alopecurus myosuroides [16] = assay: Post-emergence herbicidal test, ALOMY; conditions: 21 days after spraying
Procedure: as §1, §2, §3

Ipomoea hederacea [17] = assay: Post-emergence herbicidal test, IPOHE; set-up: key to herbicidal effect (0-9 scale) IPOHE / herbicidal rating IPOHE: A rating 0 indicates growth as untreated control; a rating 9 indicates death; conditions: POST, 21 days after spraying
Procedure: as §1, §2, §3

Triticum aestivum [18] = assay: Post-emergence herbicidal test, TRZAW; set-up: key to herbicidal effect (0-9 scale) TRZAW: A rating 0 indicates growth as untreated control; a rating 9 indicates death; conditions: POST, 21 days after spraying
Procedure: as §1, §2, §3

Zea mays [19] = assay: Pre-emergence herbicidal test, ZEAMX; conditions: PRE, 21 days after spraying
Procedure: as §1, §4, §5, §3

Echinochloa crus-galli [20] = assay: Post-emergence herbicidal test, ECHCG; conditions: 21 days after spraying
Procedure: as §1, §2, §3

Hordeum vulgare [21] = assay: Post-emergence herbicidal test, HORVW; conditions: 21 days after spraying
Procedure: as §1
These acetone solutions are diluted with water and the resulting formulations applied at dosage levels equivalent to about 1000, 800, 400, 250 or 100 g/ha per hectare of test compound per pot. After spraying, the plants are placed on greenhouse benches and are cared for in the usual manner, commensurate with conventional greenhouse practices.
as §3

Matricaria inodora [22] = assay: Post-emergence herbicidal test, MATIN; conditions: POST, 21 days after spraying
Procedure: as §1, §2, §3

Alopecurus myosuroides [23] = assay: Pre-emergence herbicidal test, ALOMY; conditions: PRE, 21 days after spraying
Procedure: as §1, §4, §5, §3

Setaria viridis [24] = assay: Post-emergence herbicidal test, SETVI; conditions: POST, 21 days after spraying
Procedure: as §1, §2, §3

Cn1c(C(F)(F)F)cc(=O)n(-n2ccc3ccc([N+](=O)[O-])cc32)c1=O [Example 5]
herbicidal effect (0-9 scale) GLXMA (Glycine max [1]; 250 g/ha): 6 | herbicidal effect (0-9 scale) GLXMA (Glycine max [1]; 1000 g/ha): 8 | herbicidal effect (0-9 scale) MATIN (Matricaria inodora [2]; 250 g/ha): 7 | herbicidal effect (0-9 scale) MATIN (Matricaria inodora [2]; 1000 g/ha): 8 | herbicidal effect (0-9 scale) ZEAMX (Zea mays [3]; 250 g/ha): 2 | herbicidal effect (0-9 scale) ZEAMX (Zea mays [3]; 1000 g/ha): 5 | herbicidal effect (0-9 scale) IPOHE (Ipomoea hederacea [4]; 250 g/ha): 5 | herbicidal effect (0-9 scale) IPOHE (Ipomoea hederacea [4]; 1000 g/ha): 5 | herbicidal effect (0-9 scale) STEME (Stellaria media [5]; 250 g/ha): 0 | herbicidal effect (0-9 scale) STEME (Stellaria media [5]; 1000 g/ha): 5 | herbicidal effect (0-9 scale) SETVI (Setaria viridis [6]; 250 g/ha): 8 | herbicidal effect (0-9 scale) SETVI (Setaria viridis [6]; 1000 g/ha): 8 | herbicidal effect (0-9 scale) TRZAW (Triticum aestivum [7]; 250 g/ha): 2 | herbicidal effect (0-9 scale) TRZAW (Triticum aestivum [7]; 1000 g/ha): 5 | herbicidal effect (0-9 scale) GALAP (Galium aparine [8]; 250 g/ha): 4 | herbicidal effect (0-9 scale) GALAP (Galium aparine [8]; 1000 g/ha): 6 | herbicidal effect (0-9 scale) GLXMA (Glycine max [9]; 250 g/ha): 0 | herbicidal effect (0-9 scale) GLXMA (Glycine max [9]; 1000 g/ha): 0 | herbicidal effect (0-9 scale) STEME (Stellaria media [10]; 250 g/ha): 0 | herbicidal effect (0-9 scale) STEME (Stellaria media [10]; 1000 g/ha): 2 | herbicidal effect (0-9 scale) ABUTH (Abutilon theophrasti [11]; 250 g/ha): 8 | herbicidal effect (0-9 scale) ABUTH (Abutilon theophrasti [11]; 1000 g/ha): 9 | herbicidal effect (0-9 scale) ECHCG (Echinochloa crus-galli [12]; 250 g/ha): 7 | herbicidal effect (0-9 scale) ECHCG (Echinochloa crus-galli [12]; 1000 g/ha): 8 | herbicidal effect (0-9 scale) GALAP (Galium aparine [13]; 250 g/ha): 5 | herbicidal effect (0-9 scale) GALAP (Galium aparine [13]; 1000 g/ha): 8 | herbicidal effect (0-9 scale) HORVW (Hordeum vulgare [14]; 250 g/ha): 4 | herbicidal effect (0-9 scale) HORVW (Hordeum vulgare [14]; 1000 g/ha): 6 | herbicidal effect (0-9 scale) ABUTH (Abutilon theophrasti [15]; 250 g/ha): 5 | herbicidal effect (0-9 scale) ABUTH (Abutilon theophrasti [15]; 1000 g/ha): 9 | herbicidal effect (0-9 scale) ALOMY (Alopecurus myosuroides [16]; 250 g/ha): 1 | herbicidal effect (0-9 scale) ALOMY (Alopecurus myosuroides [16]; 1000 g/ha): 4 | herbicidal effect (0-9 scale) IPOHE (Ipomoea hederacea [17]; 250 g/ha): 6 | herbicidal effect (0-9 scale) IPOHE (Ipomoea hederacea [17]; 1000 g/ha): 9 | herbicidal effect (0-9 scale) TRZAW (Triticum aestivum [18]; 250 g/ha): 0 | herbicidal effect (0-9 scale) TRZAW (Triticum aestivum [18]; 1000 g/ha): 2 | herbicidal effect (0-9 scale) ZEAMX (Zea mays [19]; 250 g/ha): 4 | herbicidal effect (0-9 scale) ZEAMX (Zea mays [19]; 1000 g/ha): 5 | herbicidal effect (0-9 scale) ECHCG (Echinochloa crus-galli [20]; 250 g/ha): 5 | herbicidal effect (0-9 scale) ECHCG (Echinochloa crus-galli [20]; 1000 g/ha): 8 | herbicidal effect (0-9 scale) HORVW (Hordeum vulgare [21]; 250 g/ha): 2 | herbicidal effect (0-9 scale) HORVW (Hordeum vulgare [21]; 1000 g/ha): 4 | herbicidal effect (0-9 scale) MATIN (Matricaria inodora [22]; 250 g/ha): 4 | herbicidal effect (0-9 scale) MATIN (Matricaria inodora [22]; 1000 g/ha): 7 | herbicidal effect (0-9 scale) ALOMY (Alopecurus myosuroides [23]; 250 g/ha): 3 | herbicidal effect (0-9 scale) ALOMY (Alopecurus myosuroides [23]; 1000 g/ha): 6 | herbicidal effect (0-9 scale) SETVI (Setaria viridis [24]; 250 g/ha): 7 | herbicidal effect (0-9 scale) SETVI (Setaria viridis [24]; 1000 g/ha): 8
